Measurements from patent US20040248984A1, “Use of $g(b)-adrenoceptor agonists for the treatment of neurodegenerative diseases” (priority 2001, published 2004).

Test system: Primary cultures of astrocytes
Assay: Activation of astrocytes (morphological change in primary astrocyte cultures)
Format: cell-based, Fischer 344 rats
Details: 6 hours after start of treatment, serum-free medium, microscope 200× magnification, versus polygonal flat control cells (FIG. 1/7)
Experimental: 1) Activation of Astrocytes
Primary cultures of astrocytes were obtained from the cerebral cortical tissue of newborn Fischer 344 rats within 24 hours after birth. The brains were dissected out of the vault of the cranium under sterile conditions, the cortical tissue (cortex) was isolated, and the cells were dissociated through a narrow-mesh wire netting. The cells were put into cell culture bottles and cultivated in serum-containing DMEM solution (contained fetal calf serum and a penicillin/streptomycin mixture) until the cells were confluent. Oligodendrocytes and microglia were removed by washing with cold buffer solution. The confluent astrocytes were then detached from the base of the culture bottles with a trypsin solution and seeded in a density of 20 000 cells/cm2 in Petri dishes on coverslips and cultivated in serum-containing medium until the cells were again confluent. Two days after confluence, the medium was replaced by serum-free medium and, after 24 hours, the medium was replaced again, likewise by serum-free medium. Twenty-four hours after the second replacement of medium, salmeterol was added. Six hours after the treatment, the astrocytes were photographed under the microscope with 200× magnification to document the morphological changes (FIG. 1/7).

## OCc1cc(C(O)CNCCCCCCOCCCCc2ccccc2)ccc1O (stereo not shown) [salmeterol]
  morphological changes of astrocytes (activation): activated, stellate and refractile astrocytes
